Values joined by “and” are separate entries in the source; they are usually repeats but may differ in a detail not shown here. Equal values may be shown once. Read-outs that look alike come from different tables or passages of the source.
What was measured:
alpha-glucosidase [1] = target: T1, alpha-glucosidase (Saccharomyces cerevisiae, UniProt P53341); design: method as in doi:10.1016/j.fshw.2014.11.003; settings: cited from earlier work
lipase = target: T2, lipase (Homo sapiens, UniProt P16233); experiment: Inhibition of lipase with pNPP as substrate; assay type: biochemical
T2 sequence (P16233 17-465): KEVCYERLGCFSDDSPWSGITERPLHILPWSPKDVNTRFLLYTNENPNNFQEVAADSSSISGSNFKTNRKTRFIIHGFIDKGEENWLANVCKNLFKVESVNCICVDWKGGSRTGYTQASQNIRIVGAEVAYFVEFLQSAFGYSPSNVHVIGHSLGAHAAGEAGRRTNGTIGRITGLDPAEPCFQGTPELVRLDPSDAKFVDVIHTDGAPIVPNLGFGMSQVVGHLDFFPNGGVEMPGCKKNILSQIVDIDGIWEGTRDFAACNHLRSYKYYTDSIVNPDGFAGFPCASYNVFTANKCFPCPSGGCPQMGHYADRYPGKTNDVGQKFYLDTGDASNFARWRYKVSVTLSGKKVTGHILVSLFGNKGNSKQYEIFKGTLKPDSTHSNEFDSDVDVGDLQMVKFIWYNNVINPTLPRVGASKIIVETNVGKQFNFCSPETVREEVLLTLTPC
Procedure: Inhibition of lipase was performed using p-nitrophenyl palmitate (pNPP) as a substrate. […] The IC50 was determined by plotting the remaining activity of lipase at each inhibitor concentration and […]. […] After 10 min, the reactions were started by the addition of pNPP at 0.02, 0.03, 0.06, 0.125, 0.25, 3.5 and 5 mM. The mode of inhibition and inhibition constant (Ki) were determined by Lineweaver-Burk plots.

ACC1 = test system: T3, ACC1; experiment: ACC1 inhibition assay (ACC1 Assay Kit, acetyl-CoA decrease by HPLC); assay type: biochemical; settings: for Effect on ACC1 activity: 0, 1, 10, 100 μM
T3 construct: purchased BPS Bioscience (USA)
Procedure: An ACC1 inhibition assay was performed using the ACC1 Assay Kit from BPS Bioscience (USA) following the manufacturer’s protocol. […] After a 10-minute pre-incubation period, the reaction was initiated by adding 0.1 ng/mL of ACC1 enzyme. The reactions were allowed to proceed for 40 minutes before being terminated by the addition of 100 μl of chilled acetonitrile. The samples were then centrifuged, and the supernatants were carefully transferred to new tubes for analysis. The rate of reaction was quantified by monitoring the decrease in acetyl-CoA substrate concentration using a C18 HPLC column, employing a mobile phase consisting of a linear gradient of water and methanol.

alpha-glucosidase [2] = target: T1, alpha-glucosidase; experiment: Inhibition of alpha-glucosidase with pNPG as substrate; assay type: biochemical; settings: for Mode of inhibition of alpha-glucosidase: Lineweaver-Burk plots
Procedure: Inhibition of alpha-glucosidase was performed using p-nitrophenol-α-D-glucopyranoside (pNPG) as a substrate. […] After 10 min, the reactions were started with the addition of pNPG at 0.007, 0.015, 0.03, 0.06, 0.125, 0.25, and 5 mM. The mode of inhibition and inhibition constant (Ki) were determined by Lineweaver-Burk plots.

[3] = HFD-induced rats, versus control group; cited from earlier work

T1 sequence (P53341 whole entry): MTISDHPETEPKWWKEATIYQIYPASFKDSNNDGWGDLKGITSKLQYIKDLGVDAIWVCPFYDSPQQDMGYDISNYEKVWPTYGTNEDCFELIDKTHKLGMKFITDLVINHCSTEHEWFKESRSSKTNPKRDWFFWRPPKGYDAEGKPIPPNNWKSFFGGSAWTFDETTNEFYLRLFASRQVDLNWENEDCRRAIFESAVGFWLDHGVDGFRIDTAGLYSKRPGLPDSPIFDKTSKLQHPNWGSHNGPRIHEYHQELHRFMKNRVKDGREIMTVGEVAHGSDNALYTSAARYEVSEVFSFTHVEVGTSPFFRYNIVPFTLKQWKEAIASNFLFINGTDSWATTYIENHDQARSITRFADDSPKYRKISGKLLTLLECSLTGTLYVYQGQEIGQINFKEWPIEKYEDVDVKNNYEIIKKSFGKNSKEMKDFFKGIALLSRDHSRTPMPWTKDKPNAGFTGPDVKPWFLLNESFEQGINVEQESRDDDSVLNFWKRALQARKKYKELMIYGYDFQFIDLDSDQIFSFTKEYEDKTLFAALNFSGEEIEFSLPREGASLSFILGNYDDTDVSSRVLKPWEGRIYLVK

## COc1ccc2c(c1)[nH]c1c3c(c(C)cc12)O[C@](C)(CCC=C(C)C)C=C3 [O-methyl mahanine]
alpha-glucosidase [1]
  IC50: 46.1 µM

## CCCCCCCCCCC[C@@H](C[C@@H]1OC(=O)[C@H]1CCCCCC)OC(=O)[C@H](CC(C)C)NC=O [Orlistat, orlistat, reference compound]
lipase; Lineweaver-Burk plots
  Mode of inhibition of lipase: Competitive inhibition

## CCC1CN2CCc3c([nH]c4cccc(OC)c34)C2CC1/C(=C\OC)C(=O)OC (centres unmarked) [Mitragynine]
ACC1
  Effect on ACC1 activity: not and weak inhibitory effect
alpha-glucosidase [2]
  Mode of inhibition of alpha-glucosidase: mix-typed inhibition
alpha-glucosidase [2]; ratio of acarbose IC50 to IC50
  Alpha-glucosidase IC50 lower than acarbose: 7.3 fold
lipase
  IC50: 27.4 ± 2.9 µM
lipase; Ki lipase, Lineweaver-Burk plots, pNPP
  Ki: 13.7 µM and 7 µM
lipase; Lineweaver-Burk plots
  Mode of inhibition of lipase: Competitive inhibition

## C[C@H]1O[C@H](O[C@H]2[C@H](O)[C@@H](O)[C@@H](O[C@H]3[C@H](O)[C@@H](O)C(O)O[C@@H]3CO)O[C@@H]2CO)[C@H](O)[C@@H](O)[C@@H]1N[C@H]1C=C(CO)[C@@H](O)[C@H](O)[C@H]1O (some centres unmarked) [Acarbose, acarbose, reference compound]
alpha-glucosidase [2]
  Mode of inhibition of alpha-glucosidase: Non-competitive inhibition

## O=c1c(O)c(-c2ccc(O)c(O)c2)oc2cc(O)cc(O)c12 [Quercetin]
ACC1
  Effect on ACC1 activity: decreased ACC1 activity in a dose-dependent manner
ACC1; 100 μM
  Decrease of ACC1 activity: 60%
[3]
  Plasma triglyceride: lower than in the control group
lipase; Lineweaver-Burk plots
  Mode of inhibition of lipase: Competitive inhibition

## C[C@@H]1O[C@@H](OC[C@H]2O[C@@H](Oc3c(-c4ccc(O)c(O)c4)oc4cc(O)cc(O)c4c3=O)[C@H](O)[C@@H](O)[C@@H]2O)[C@H](O)[C@H](O)[C@H]1O [Rutin, rutin]
lipase; pure compounds and positive control, pNPP at Km 1.3 mM, unit given, read-out: Half-maximal inhibitory concentration (IC50) Lipase
  IC50: > 100 µM
